Laboratory results from patent US20090062301A1, “PHARMACEUTICAL COMBINATION COMPOSITION COMPRISING AT LEAST ONE PKC INHIBITOR AND AT LEAST ONE JA K3 KINASE INHIBITOR FOR TREATING AUTOIMMUNE DISORDERS” (priority 2006, published 2009).

Tested on: donor heart graft (rejection)
Assay: Rat heart transplantation (graft survival)
Type: in vivo, rat (Male Lewis and BN)
Description: A. Rat Heart Transplantation
The strain combination used: Male Lewis (RT^1 haplotype) and BN (RT^1 haplotype). The animals are anaesthetised using inhalational isofluorane. […] The aorta is ligated and divided distal to the first branch and the brachiocephalic trunk is divided at the first bifurcation. The left pulmonary artery is ligated and divided and the right side divided but left open. All other vessels are dissected free, ligated and divided and the donor heart is removed into iced saline.
The recipient is prepared by dissection and cross-clamping of the infra-renal abdominal aorta and vena cava. The graft is implanted with end-to-side anastomoses, using 10/0 monofilament suture, between the donor brachiocephalic trunk and the recipient aorta and the donor right pulmonary artery to the recipient vena cava. The clamps are removed, the graft tethered retroabdominally, the abdominal contents washed with warm saline and the animal is closed and allowed to recover under a heating lamp. Graft survival is monitored by daily palpation of the beating donor heart through the abdominal wall. Rejection is considered to be complete when heart beat stops.

C[C@@H]1CCN(C(=O)CC#N)C[C@@H]1N(C)c1ncnc2[nH]ccc12 [CP-690,550, 3-{(3R,4R)-4-methyl-3-[methyl-(7H-pyrrolo[2,3-d]pyrimidin-4-yl)-amino]-piperidin-1-yl}-3-oxo-propionitrile]
EC50 (672 h, rat heart transplantation, CP-690,550 in mono-citrate salt form, concentration in blood, read-out: EC50 (drug concentration in blood at which 50% of the animals maintain their graft for >28 days)): 0.06 µg/mL | graft survival (rat heart transplantation, Compound A in the acetate form at 1 to 30 mg/kg/day and CP-690,550 mono-citrate at an EC50 of 60 ng/ml): significantly increase the graft survival

CN1CCN(c2nc(C3=C(c4c[nH]c5ccccc45)C(=O)NC3=O)c3ccccc3n2)CC1 [Compound A, 3-(1.H.-indol-3-yl)-4-[2-(4-methyl-piperazin-1-yl)-quinazolin-4-yl]-pyrrole-2,5-dione]
graft survival (rat, in vivo): significantly increase the graft survival
